# Test results published in ChEMBL document CHEMBL1201862, “PubChem BioAssay data set” (2004).
# The source made the active and inactive calls.
# Key:
# [1] = Cytotoxicity screening for potential Inhibitors of Bacterial Capsule Biogenesis. [Related pubchem assays (depositor defined):AID488970]; assay type: functional
# [2] = molecular target: Histone-lysine N-methyltransferase NSD2 (Homo sapiens, UniProt O96028); assay type: biochemical
# [3] = molecular target: T1, Peroxisome proliferator-activated receptor gamma/Nuclear receptor corepressor 2 (Homo sapiens, UniProt P37231+Q9Y618); assay type: functional
# [4] = molecular target: T2, Photoreceptor-specific nuclear receptor (Homo sapiens, UniProt Q9Y5X4); assay type: functional;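 further: potency for compounds that break the NR2E3 corepressor complex and count as activators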
# Beta-lactamase [5] = molecular target: Beta-lactamase (Pseudomonas aeruginosa, UniProt Q79MP6);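 further: biochemical dose-response test of metallo-beta-lactamase enzyme inhibition, read out by epi-absorbance; purified recombinant IMP-1 metallo-beta-lactamase with nitrocefin as substrate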
# [6] = inhibitors of SNCA 5'UTR-driven reporter translation, confirmation, H4 neuroglioma cells, luminescence (AID 1988); assay type: functional, cell-based
# [7] = inhibitors of firefly luciferase expression or activity, dose response, H4 neuroglioma cells, luminescence (AID 1990); assay type: functional, cell-based
# [8] = Luminescence Cell-Based Dose Response HTS to Identify Inhibitors of 5'UTR Stem-Loop Driven Prion Protein mRNA Translation in H4 Neuroglioblastoma Cells. [Related pubchem assays: 1827 (Project Summary), 1813 (Primary HTS)]; assay type: functional
# Genome polyprotein [9] = molecular target: Genome polyprotein (Hepatitis C virus, UniProt Q2Q167); assay: HCV core protein dimerization inhibitors, dose response, biochemical, TR-FRET (AID 2159); parameters: species or system Hepacivirus hominis;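 further: blocks dimerization of HCV core protein measured by TR-FRET between tagged core106 pairs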
# Beta-lactamase [10] = molecular target: Beta-lactamase (Salmonella choleraesuis (strain SC-B67), UniProt Q5J463)
# [11] = molecular target: 5-hydroxytryptamine receptor 1A (Homo sapiens, UniProt P08908); assay type: functional
# [12] = molecular target: T1, Peroxisome proliferator-activated receptor gamma/Nuclear receptor corepressor 2; assay: Counterscreen for NR2E3 inverse agonists: TR-FRET-based biochemical high throughput dose response assay to identify inverse agonists of the interaction between peroxisome proliferator-activated receptor gamma (PPARg) and nuclear receptor co-repressor 2 (NCOR2).; assay type: functional
# [13] = molecular target: T2, Photoreceptor-specific nuclear receptor; assay: NR2E3 inverse agonists, dose response, biochemical, TR-FRET (AID 463256); assay type: functional
# Ephrin type-A receptor 4 = Ephrin type-A receptor 4 (Mus musculus, UniProt Q03137); assay: inhibitors of EphA4 binding to KYL peptide, primary screen, biochemical, colorimetric, mouse EphA4 (AID 689); assay type: functional
# [14] = molecular target: Tyrosyl-DNA phosphodiesterase 2 (Homo sapiens, UniProt O95551); assay: human TDP2 enzyme inhibitors, dose response, biochemical, epi absorbance, IC50 (AID 743297)
# [15] = molecular target: T3, Replicative DNA helicase DnaB (Mycobacterium tuberculosis, UniProt P9WMR3); assay: DnaB intein splicing inhibitors, dose response, biochemical, cell-free fluorescence (AID 449749); assay type: functional
# T3 sequence (P9WMR3 whole entry): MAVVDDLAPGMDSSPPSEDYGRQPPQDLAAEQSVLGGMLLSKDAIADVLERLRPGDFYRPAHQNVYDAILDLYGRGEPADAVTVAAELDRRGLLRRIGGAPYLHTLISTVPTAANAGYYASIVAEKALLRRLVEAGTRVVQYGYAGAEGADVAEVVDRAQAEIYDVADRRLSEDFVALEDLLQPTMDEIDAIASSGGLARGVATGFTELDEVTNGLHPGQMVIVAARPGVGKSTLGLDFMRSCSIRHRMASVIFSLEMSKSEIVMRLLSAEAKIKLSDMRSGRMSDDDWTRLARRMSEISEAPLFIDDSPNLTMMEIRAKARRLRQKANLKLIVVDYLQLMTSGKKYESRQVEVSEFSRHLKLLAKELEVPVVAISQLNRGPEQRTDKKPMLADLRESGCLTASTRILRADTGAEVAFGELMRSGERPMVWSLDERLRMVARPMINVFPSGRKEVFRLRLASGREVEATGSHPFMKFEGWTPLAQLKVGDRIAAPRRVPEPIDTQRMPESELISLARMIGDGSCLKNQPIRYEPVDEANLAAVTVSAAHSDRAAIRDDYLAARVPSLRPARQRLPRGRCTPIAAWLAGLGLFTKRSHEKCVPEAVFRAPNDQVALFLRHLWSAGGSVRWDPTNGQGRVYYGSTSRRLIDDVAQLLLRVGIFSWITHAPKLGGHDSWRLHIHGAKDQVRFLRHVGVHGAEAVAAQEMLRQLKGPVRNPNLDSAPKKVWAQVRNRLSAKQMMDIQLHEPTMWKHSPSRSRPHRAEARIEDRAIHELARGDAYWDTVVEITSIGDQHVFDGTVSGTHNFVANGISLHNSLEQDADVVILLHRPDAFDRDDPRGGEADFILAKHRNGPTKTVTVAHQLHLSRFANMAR
# Protein RecA = molecular target: T4, Protein RecA (Mycobacterium tuberculosis, UniProt P9WHJ3); assay: Fluorescence Cell-Free Homogeneous Dose Retest to Identify Inhibitors of RecA-Intein Splicing Activity. [Related pubchem assays (depositor defined):AID2097, AID2223, AID489010, AID492950]; assay type: functional
# T4 sequence (P9WHJ3 whole entry): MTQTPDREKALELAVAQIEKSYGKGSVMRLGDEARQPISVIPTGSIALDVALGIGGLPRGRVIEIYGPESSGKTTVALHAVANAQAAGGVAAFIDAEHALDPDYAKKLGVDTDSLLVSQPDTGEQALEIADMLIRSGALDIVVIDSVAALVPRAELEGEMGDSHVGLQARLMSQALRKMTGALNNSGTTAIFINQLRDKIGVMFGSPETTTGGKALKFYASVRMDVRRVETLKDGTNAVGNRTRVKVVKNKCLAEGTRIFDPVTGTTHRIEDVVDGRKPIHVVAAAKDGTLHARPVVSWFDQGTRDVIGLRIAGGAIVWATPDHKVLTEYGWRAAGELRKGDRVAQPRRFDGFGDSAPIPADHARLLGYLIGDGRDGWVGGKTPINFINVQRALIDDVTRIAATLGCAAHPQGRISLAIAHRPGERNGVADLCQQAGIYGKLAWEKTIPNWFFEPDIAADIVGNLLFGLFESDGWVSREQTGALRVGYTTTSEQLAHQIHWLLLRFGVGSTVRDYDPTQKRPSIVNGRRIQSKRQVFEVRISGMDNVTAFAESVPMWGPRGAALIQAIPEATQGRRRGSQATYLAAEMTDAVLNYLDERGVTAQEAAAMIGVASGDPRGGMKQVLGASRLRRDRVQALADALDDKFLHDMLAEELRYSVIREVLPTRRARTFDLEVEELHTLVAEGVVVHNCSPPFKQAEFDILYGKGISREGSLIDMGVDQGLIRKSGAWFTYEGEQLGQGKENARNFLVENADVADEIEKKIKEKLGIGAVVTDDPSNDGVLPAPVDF
# Genome polyprotein [16] = molecular target: Genome polyprotein (dengue virus type 2, UniProt P29990); assay: Dengue-2 NS5 methyltransferase inhibitors, primary screen, biochemical, confirmation dose response (AID 588689); assay type: functional
# [17] = molecular target: T5, Zinc finger protein mex-5 (Caenorhabditis elegans, UniProt Q9XUB2); assay: MEX-5/TCR-2 RNA interaction inhibitors, dose response, biochemical, C. elegans, fluorescence polarization (AID 1960)
# T5 sequence (Q9XUB2 whole entry): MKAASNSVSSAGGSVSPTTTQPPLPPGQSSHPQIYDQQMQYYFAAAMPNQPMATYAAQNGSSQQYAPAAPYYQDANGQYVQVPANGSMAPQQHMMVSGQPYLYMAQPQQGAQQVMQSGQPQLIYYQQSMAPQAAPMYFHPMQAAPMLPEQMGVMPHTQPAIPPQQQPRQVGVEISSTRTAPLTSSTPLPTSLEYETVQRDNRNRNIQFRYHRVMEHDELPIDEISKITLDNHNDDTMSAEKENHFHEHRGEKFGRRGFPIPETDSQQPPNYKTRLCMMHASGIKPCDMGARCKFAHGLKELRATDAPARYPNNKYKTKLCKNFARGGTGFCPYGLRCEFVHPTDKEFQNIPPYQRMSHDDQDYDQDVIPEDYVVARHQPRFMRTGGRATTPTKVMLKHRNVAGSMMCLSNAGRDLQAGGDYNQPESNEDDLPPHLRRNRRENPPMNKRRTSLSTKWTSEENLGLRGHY
# [18] = molecular target: T6, RNA-binding protein pos-1 (Caenorhabditis elegans, UniProt G5EF15); assay: inhibitors of POS-1/mex-3 RNA binding, dose response, biochemical, fluorescence polarization (AID 1964);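 further: purified POS-1 fused to maltose binding protein made in E. coli; potency of compounds blocking POS-1 binding to fluorescent RNA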
# T6 sequence (G5EF15 whole entry): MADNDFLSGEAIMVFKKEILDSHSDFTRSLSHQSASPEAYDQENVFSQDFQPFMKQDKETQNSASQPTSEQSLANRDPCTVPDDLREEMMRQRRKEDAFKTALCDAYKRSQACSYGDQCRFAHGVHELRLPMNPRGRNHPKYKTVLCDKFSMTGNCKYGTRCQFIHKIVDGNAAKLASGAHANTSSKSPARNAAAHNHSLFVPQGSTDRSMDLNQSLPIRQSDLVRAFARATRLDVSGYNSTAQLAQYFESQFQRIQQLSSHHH
# Fibrinogen beta chain [19] = molecular target: T7, Fibrinogen beta chain (Homo sapiens, UniProt P02675); assay: Fluorescence polarization-based biochemical high throughput dose response assay to identify inhibitors that disrupt the binding of a cyclic peptide (Tn7) to the fibrin proteolytic product D-Dimer and fragment E complex [DD(E )].
# T7 sequence (P02675 whole entry): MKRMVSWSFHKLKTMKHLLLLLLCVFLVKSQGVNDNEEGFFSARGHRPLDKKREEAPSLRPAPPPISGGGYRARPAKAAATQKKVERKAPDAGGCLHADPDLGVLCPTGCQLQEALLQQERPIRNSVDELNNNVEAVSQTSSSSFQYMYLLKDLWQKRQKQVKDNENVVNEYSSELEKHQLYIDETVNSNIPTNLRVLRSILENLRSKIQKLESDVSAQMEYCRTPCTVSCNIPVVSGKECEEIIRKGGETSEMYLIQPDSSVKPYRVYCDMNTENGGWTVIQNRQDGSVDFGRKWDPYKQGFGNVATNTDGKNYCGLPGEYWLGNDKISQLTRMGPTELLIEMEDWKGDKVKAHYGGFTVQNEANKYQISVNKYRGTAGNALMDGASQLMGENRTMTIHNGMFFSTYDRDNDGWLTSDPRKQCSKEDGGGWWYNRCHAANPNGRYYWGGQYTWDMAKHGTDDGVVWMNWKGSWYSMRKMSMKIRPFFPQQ
# 14-3-3 protein gamma = 14-3-3 protein gamma (Homo sapiens, UniProt P61981); assay: modulators of 14-3-3 gamma client binding – dose response (AID 711); assay type: functional
# Bcl-2-like protein 10 = molecular target: T8, Bcl-2-like protein 10 (Homo sapiens, UniProt Q9HD36); assay: displacers of TR3 peptide from Bcl-B, primary screen, selectivity assay for Bfl-1 inhibitor project, biochemical, fluorescence polarization, FITC-TR3 peptide (AID 748);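 further: fluorescence polarization from a fluorescein-labelled TR3 peptide binding purified Bcl-B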
# T8 sequence (Q9HD36 whole entry): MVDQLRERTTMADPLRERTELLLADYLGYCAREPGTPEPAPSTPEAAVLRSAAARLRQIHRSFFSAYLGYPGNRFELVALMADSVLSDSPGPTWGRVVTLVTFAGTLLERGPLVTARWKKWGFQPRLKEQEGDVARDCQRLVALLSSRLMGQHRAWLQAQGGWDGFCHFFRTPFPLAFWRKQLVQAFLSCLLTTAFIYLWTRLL
# Fibrinogen beta chain [20] = molecular target: T7, Fibrinogen beta chain; assay: Fluorescence polarization-based biochemical high throughput dose response assay to identify inhibitors that disrupt the binding of a cyclic peptide (Tn6) to the fibrin proteolytic product D-Dimer and fragment E complex [DD(E )].
# [21] = Artemis endonuclease inhibitor potency, dose response, biochemical, fluorescence intensity (AID 720701); assay type: functional;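 further: Artemis endonuclease enzyme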
# Danio rerio = assay: In Vivo Angiogenesis Dose-Response Confirmation. [Related pubchem assays: 732 (Assay preceding this confirmatory assay.)]; assay type: functional, organism-based
# T2 sequence (Q9Y5X4 whole entry): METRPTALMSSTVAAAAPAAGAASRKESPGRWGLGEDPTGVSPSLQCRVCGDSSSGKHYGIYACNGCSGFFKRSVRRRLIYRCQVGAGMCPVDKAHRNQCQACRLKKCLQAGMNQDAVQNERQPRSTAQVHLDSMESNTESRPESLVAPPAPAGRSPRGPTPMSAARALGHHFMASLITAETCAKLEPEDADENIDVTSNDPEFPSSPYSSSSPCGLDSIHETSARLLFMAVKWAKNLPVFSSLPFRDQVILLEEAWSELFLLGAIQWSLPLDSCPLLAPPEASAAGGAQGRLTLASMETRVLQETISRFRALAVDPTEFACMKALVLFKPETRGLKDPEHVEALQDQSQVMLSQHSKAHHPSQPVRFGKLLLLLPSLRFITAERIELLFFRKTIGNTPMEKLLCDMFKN
# T1 sequence (P37231 whole entry): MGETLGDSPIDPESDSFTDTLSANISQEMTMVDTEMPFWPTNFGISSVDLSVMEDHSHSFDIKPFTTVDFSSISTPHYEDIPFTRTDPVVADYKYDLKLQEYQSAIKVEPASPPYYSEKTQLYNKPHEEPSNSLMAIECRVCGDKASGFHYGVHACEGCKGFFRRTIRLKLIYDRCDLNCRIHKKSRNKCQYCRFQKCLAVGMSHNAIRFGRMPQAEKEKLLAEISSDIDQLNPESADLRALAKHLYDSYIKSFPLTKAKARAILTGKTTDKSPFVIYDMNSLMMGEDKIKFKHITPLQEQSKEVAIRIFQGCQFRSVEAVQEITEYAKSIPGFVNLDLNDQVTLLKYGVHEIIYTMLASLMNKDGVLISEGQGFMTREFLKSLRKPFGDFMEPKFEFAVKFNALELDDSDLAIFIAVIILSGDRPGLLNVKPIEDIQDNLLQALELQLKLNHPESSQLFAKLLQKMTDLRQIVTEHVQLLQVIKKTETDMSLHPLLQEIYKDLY
# T1 sequence (Q9Y618 whole entry): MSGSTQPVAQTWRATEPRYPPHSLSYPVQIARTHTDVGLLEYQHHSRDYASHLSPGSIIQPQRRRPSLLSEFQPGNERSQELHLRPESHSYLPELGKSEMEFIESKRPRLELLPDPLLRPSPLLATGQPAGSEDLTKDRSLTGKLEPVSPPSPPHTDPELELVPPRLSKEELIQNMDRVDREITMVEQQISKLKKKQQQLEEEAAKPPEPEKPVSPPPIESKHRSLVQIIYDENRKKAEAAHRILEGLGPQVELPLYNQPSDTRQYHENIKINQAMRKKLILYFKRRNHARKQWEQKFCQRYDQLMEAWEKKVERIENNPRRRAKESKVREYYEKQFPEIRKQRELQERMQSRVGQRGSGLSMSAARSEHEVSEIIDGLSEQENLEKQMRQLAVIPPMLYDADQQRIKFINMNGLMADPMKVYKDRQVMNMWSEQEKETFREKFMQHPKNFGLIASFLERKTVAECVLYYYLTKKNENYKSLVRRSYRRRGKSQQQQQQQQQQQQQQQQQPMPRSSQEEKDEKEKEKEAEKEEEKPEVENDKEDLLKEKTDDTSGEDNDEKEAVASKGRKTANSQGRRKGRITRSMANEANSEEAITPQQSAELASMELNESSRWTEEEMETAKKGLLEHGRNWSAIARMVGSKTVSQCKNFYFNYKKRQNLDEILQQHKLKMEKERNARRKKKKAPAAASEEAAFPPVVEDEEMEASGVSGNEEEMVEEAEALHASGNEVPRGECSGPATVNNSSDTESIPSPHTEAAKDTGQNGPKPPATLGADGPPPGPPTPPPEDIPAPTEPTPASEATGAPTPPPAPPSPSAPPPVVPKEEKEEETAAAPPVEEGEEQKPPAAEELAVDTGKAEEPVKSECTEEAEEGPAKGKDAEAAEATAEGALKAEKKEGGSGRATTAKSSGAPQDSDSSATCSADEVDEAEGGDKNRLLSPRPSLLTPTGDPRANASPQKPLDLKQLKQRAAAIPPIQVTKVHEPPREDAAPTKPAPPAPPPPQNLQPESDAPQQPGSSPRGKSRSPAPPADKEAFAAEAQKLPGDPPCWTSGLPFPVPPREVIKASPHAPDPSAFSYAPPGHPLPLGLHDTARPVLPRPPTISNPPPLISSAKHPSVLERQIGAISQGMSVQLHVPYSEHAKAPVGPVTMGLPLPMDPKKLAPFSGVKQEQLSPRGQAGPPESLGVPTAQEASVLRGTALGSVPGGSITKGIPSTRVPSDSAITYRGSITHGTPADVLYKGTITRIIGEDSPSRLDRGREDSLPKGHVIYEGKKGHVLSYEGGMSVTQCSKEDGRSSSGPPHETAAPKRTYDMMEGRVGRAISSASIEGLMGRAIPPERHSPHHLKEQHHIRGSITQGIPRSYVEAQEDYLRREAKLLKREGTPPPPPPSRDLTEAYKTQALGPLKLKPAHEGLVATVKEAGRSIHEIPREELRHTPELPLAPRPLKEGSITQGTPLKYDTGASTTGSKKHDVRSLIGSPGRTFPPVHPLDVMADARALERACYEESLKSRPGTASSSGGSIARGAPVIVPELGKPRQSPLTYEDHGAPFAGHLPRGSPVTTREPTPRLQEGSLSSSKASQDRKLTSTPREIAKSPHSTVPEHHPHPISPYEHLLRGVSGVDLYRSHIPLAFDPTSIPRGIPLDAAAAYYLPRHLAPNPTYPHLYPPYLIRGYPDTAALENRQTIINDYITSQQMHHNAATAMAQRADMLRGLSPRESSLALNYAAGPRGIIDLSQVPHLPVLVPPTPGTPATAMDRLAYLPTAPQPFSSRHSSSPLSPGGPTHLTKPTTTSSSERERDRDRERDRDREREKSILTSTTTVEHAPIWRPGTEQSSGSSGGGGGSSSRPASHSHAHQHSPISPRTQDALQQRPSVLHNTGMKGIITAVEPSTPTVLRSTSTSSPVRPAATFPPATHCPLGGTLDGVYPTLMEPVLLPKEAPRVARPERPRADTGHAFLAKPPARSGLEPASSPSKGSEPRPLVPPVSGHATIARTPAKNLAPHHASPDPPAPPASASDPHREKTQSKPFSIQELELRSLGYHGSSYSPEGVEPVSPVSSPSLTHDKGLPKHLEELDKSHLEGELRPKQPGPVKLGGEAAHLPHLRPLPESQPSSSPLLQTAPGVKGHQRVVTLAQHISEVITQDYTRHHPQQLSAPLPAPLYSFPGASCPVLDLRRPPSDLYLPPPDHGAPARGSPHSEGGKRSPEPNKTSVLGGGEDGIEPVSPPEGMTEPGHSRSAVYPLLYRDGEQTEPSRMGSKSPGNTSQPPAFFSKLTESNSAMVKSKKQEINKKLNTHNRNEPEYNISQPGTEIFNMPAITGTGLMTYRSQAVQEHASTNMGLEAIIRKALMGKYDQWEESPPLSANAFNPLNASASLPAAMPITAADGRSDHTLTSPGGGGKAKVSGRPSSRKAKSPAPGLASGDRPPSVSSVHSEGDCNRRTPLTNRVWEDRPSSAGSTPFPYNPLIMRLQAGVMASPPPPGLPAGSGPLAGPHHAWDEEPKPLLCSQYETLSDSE
# Sequence of Ephrin type-A receptor 4 (Q03137 whole entry): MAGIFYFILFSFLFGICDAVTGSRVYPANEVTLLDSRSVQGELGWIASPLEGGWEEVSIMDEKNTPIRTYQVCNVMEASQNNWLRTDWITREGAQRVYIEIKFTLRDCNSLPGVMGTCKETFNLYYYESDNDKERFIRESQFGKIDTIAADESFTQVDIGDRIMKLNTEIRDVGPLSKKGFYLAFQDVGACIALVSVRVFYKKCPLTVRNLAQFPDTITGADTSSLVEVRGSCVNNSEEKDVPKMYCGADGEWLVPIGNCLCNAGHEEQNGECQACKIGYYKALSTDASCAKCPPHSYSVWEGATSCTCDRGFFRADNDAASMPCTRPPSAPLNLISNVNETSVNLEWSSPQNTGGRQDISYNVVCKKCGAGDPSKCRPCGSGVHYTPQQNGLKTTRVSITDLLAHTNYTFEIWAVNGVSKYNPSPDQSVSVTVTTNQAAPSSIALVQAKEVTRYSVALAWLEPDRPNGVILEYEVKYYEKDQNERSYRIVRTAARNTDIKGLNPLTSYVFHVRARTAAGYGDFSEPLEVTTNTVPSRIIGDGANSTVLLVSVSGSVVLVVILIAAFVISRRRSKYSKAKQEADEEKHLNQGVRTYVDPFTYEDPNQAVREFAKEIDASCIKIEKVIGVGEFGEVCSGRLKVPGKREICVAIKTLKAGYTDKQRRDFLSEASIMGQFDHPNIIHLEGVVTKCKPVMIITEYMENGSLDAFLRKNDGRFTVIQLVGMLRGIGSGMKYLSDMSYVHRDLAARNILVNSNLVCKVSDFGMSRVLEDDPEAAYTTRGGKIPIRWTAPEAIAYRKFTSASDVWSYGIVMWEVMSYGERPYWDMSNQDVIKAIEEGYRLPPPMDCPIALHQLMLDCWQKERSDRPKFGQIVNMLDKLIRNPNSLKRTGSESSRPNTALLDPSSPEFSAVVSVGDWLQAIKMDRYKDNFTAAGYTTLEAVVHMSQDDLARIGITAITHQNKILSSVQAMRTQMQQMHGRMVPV
# Sequence of Beta-lactamase (Salmonella choleraesuis (strain SC-B67), UniProt Q5J463) (Q5J463 whole entry): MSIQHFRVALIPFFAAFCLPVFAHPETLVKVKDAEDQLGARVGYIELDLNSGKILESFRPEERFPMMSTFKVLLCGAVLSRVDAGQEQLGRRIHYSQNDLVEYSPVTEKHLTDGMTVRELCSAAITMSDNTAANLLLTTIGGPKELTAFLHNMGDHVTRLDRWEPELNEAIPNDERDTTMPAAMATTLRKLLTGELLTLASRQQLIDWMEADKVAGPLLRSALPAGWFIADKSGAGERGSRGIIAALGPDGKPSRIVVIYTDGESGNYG
# Sequence of 14-3-3 protein gamma (P61981 whole entry): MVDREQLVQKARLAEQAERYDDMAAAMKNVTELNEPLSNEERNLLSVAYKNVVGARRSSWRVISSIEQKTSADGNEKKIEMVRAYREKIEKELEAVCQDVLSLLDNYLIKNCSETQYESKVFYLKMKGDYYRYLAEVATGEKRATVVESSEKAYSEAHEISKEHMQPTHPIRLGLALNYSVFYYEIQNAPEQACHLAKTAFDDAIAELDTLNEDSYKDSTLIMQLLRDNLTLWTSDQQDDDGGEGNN
# Sequence of Genome polyprotein (Hepatitis C virus, UniProt Q2Q167) (Q2Q167 whole entry): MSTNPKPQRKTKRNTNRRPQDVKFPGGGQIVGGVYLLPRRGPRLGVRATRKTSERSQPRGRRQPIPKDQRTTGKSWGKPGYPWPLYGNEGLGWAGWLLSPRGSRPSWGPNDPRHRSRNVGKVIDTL
structure (smiles),measurement,setting,value
CCN(CC)c1ccc2c(-c3ccc(S(=O)(=O)O)cc3S(=O)(=O)[O-])c3ccc(=[N+](CC)CC)cc-3oc2c1,CC50,[1],18.4 µM (active)
same,AC50,[2],> 20 µM (inactive)
same,IC50,[3],1.02 µM (active)
same,IC50,[4],> 39.8 µM (not active)
same,IC50,Beta-lactamase [5],> 59.6 µM (inactive)
same,EC50,[6],9.58 µM (active)
same,EC50,[7],11.7 µM (active)
same,EC50,[8],11.4 µM (active)
same,IC50,Genome polyprotein [9],> 49.8 µM (not active)
same,IC50,Beta-lactamase [10],> 59.6 µM (inactive)
Cc1cccc(NC(=O)C2CCCN(C(=O)Nc3ccccc3)C2)c1C (stereo unspecified),EC50,[11],> 50 µM (not active)
Cc1ccc(-c2cc(C(=O)NCc3cnn(C)c3)c3cc(Br)ccc3n2)cc1,IC50,[12],1.56 µM (active)
same,IC50,[13],2.99 µM (active)
CCN(CCNC(=O)C1CCCN(S(=O)(=O)CC)C1)c1ccccc1 (stereo unspecified),IC50,Ephrin type-A receptor 4,> 100 µM (not active)
COc1cc(NCCCC(C)N)c2ncccc2c1 (stereo unspecified),IC50,[14],49.2 µM (inactive)
same,AC50,[15],4.78 µM (active)
same,EC50,Protein RecA,0.42 µM (active)
same,IC50,Genome polyprotein [16],> 100 µM (active)
same,EC50,[17],34.3 µM (active)
same,EC50,[18],42.5 µM (active)
same,IC50,Fibrinogen beta chain [19],> 83.3 µM (inactive)
same,IC50,14-3-3 protein gamma,> 50 µM (not active)
same,IC50,Bcl-2-like protein 10,8.47 µM (active)
same,IC50,Fibrinogen beta chain [20],54.4 µM (inactive)
same,IC50,[21],> 20 µM (inactive)
COc1cc2ncnc(Nc3cccc(Cl)c3)c2cc1OC [TYRPHOSTIN AG-1478],IC50,Danio rerio,12.7 µM (not active)
